Reference: publication PMC2984425, “Safety and pharmacokinetics of novel selective vascular endothelial growth factor receptor-2 inhibitor YN968D1 in patients with advanced malignancies” (BMC Cancer, 2010)

Tests used:
[1] = system: patients with advanced solid tumors; assay: Phase I dose escalation: MTD and DLT of oral once-daily apatinib; assay type: in vivo
Description: The phase I study was designed in accordance with the Chinese State Food and Drug Administration (SFDA) recommendations (Guidance for Industry, 2005). PK evaluations were to be performed for single-dosing and multiple-dosing of which the dose levels were determined after completion of dose-escalation. Three dose levels (low, intermediate and high dose) for single-dosing and one dose level (the recommended dose for phase II) for multiple-dosing study, between 8 to 12 participants for each dose levels, were required to meet the SFDA guidance. A cross-over design to evaluate the effects of food intake was incorporated into the single-dosing assessment, also meeting the SFDA requirement, but data will be presented separately.
Apatinib was provided by Advenchen Laboratories, LLC (Northridge, CA, USA) as capsule to be administered orally daily. A safe starting dose was determined in accordance with SFDA recommendations (Guidance for Industry 2005) following a previously established maximum-tolerated dose (MTD) in dogs for YN968D1 of above 30 mg/kg. Thus, in compliance with the SFDA's recommendation, the starting dose was determined to be 250 mg/day, corresponding to one-fourth of the MTD in dogs. (ClinicalTrials.gov number: NCT00633490).
Dose-escalation cohorts enrolled three to six patients. Intrapatient dose escalation was not allowed. […]

advanced solid tumors = assay: Tumor response by RECIST; assay type: in vivo, human
Description: Patients with measurable disease at baseline were evaluated for tumor response according to the Response Evaluation Criteria for Solid Tumors (RECIST). Radiographic studies (CT scan or MRI) for disease assessment were conducted at baseline and every 2 cycles (8 weeks) thereafter. The best overall response was reported. Disease control rate was defined as the percentage of patients with complete response (CR), partial response (PR), and stable disease (SD) for at least 8 weeks. The duration of overall response was defined as the period from the initial measurement of complete response (CR) or partial response (PR), whichever occurred first, to the first date of documented disease recurrence or progression. The same method and techniques of assessment were used to characterize each identified and reported lesion at baseline and at subsequent evaluations.

xenograft = system: xenograft; design: method as in ref 8 = [8]; Chen P Iruela-Arispe L Lou L Sun P Yuan K VEGFr inhibitor YN968D1 xenograft dose response studies against human colon cancer Ls174t and HT29 Proc Amer Assoc Cancer Res 2006 47 abst 1764; conditions: xenograft study; cited from earlier work

N#CC1(c2ccc(NC(=O)c3cccnc3NCc3ccncc3)cc2)CCCC1 [apatinib]
recommended (phase II) dose ([1]; human, in vivo, 4 weeks): 750 mg
maximum tolerated dose (MTD) ([1]; oral, once daily, patients): 850 mg
CR, evaluable patients (advanced solid tumors; 250 mg cohort): 0
Disease control (%) CR+PR+SD (advanced solid tumors; 250 mg cohort): 66.7%
Disease control CR+PR+SD, patients (advanced solid tumors; 250 mg cohort): 2
PD, evaluable patients (advanced solid tumors; 250 mg cohort): 1
PR, evaluable patients (advanced solid tumors; 250 mg cohort): 1
CR, evaluable patients (advanced solid tumors; 500 mg cohort): 0
Disease control (%) CR+PR+SD (advanced solid tumors; 500 mg cohort): 66.7%
Disease control CR+PR+SD, patients (advanced solid tumors; 500 mg cohort): 6
PD, evaluable patients (advanced solid tumors; 500 mg cohort): 3
PR, evaluable patients (advanced solid tumors; 500 mg cohort): 2
CR, evaluable patients (advanced solid tumors; 750 mg cohort): 0
Disease control (%) CR+PR+SD (advanced solid tumors; 750 mg cohort): 100%
Disease control CR+PR+SD, patients (advanced solid tumors; 750 mg cohort): 11
PD, evaluable patients (advanced solid tumors; 750 mg cohort): 0
PR, evaluable patients (advanced solid tumors; 750 mg cohort): 2
CR, evaluable patients (advanced solid tumors; 850 mg cohort): 0
Disease control (%) CR+PR+SD (advanced solid tumors; 850 mg cohort): 90.9%
Disease control CR+PR+SD, patients (advanced solid tumors; 850 mg cohort): 10
PD, evaluable patients (advanced solid tumors; 850 mg cohort): 1
PR, evaluable patients (advanced solid tumors; 850 mg cohort): 2
CR, evaluable patients (advanced solid tumors; 1000 mg cohort): 0
Disease control (%) CR+PR+SD (advanced solid tumors; 1000 mg cohort): 66.7%
Disease control CR+PR+SD, patients (advanced solid tumors; 1000 mg cohort): 2
PD, evaluable patients (advanced solid tumors; 1000 mg cohort): 1
PR, evaluable patients (advanced solid tumors; 1000 mg cohort): 0
patients who achieved PR (advanced solid tumors; 22 assessable patients with gastric and colorectal cancer): 4
Disease control rate (advanced solid tumors; 22 assessable patients with gastric and colorectal cancer (n = 18)): 81%
CR, evaluable patients (advanced solid tumors; Total, n = 37): 0
Disease control CR+PR+SD, patients (advanced solid tumors; Total, n = 37): 31
PD, evaluable patients (advanced solid tumors; Total, n = 37): 6
Disease control (%) CR+PR+SD, disease control rate (advanced solid tumors; Total, n = 37, at 8 weeks): 83.8%
Duration of PR (advanced solid tumors; one GIST patient who failed imatinib): 24 months
PR, % of evaluable patients (advanced solid tumors; thirty-seven evaluable patients): 18.9%
in vivo efficacy compared to valatinib (xenograft): superior in vivo efficacy
